From patent US20220008514A1, “COMBINED USE OF SELECTIVE SEROTONIN REUPTAKE INHIBITORS AND HEMATOPOIETIC GROWTH FACTORS FOR TREATING HEMATOPOIETIC DISEASES” (IMAGINE INSTITUT DES MALADIES GENETIQUES NECKER ENFANTS …, priority 2018, published 2022) come the findings set out here.

Test [1] deals with erythroid cells generated from CD34+ cord blood progenitor cells. Nature of the test: Human cord blood erythroid in vitro cell culture, erythroid proliferation (FIG. 3). It counts as cell-based. Particulars: serum-free medium with EPO (2 mU/ml)+IL-3 (10 ng/ml)+SCF (50 ng/ml). As for the experimental part: FIG. 3. Human in vitro experiments (effect of 5-HT combined with EPO). To determine the role played by serotonin in erythroid proliferation, inventors used a well-defined culture system that closely mimics the proliferation and differentiation of erythroid precursors in vivo. […] Erythroid cells were generated from CD34^+ cord blood progenitor cells in serum-free medium in the presence of EPO (2 mU/ml)+IL-3 (10 ng/ml)+stem cell factor (SCF; 50 ng/ml). Throughout data are mean±SEM. Unpaired t-test and Pearson linear and non-linear regressions were used when appropriate. *P<0.05, **P<0.005, ***P<0.0005.
Erythroid cells were generated from CD34^+ cord blood progenitor cells in serum-free medium in the presence of EPO (2 mU/ml)+IL-3 (10 ng/ml)+stem cell factor (SCF; 50 ng/ml) as previously described in Zermati et al., (2000) Exp. Hematol. 28:885-894.

For test [2], the system named is chemotherapy induced aplasia. Nature of the test: Human cohort study: effect of SSRI on chemotherapy-induced aplasia after autologous HSCT (FIG. 6). It counts as in vivo. Particulars: patients at the time of autologous HSCT after myeloablative chemotherapy, versus matched controls not under SSRI. The source says: FIG. 6. Human cohort study (effect of SSRI on chemotherapy induced aplasia). A reduced duration of aplasia is observed in patients treated with SSRI at the time of autologous HSCT (x), in comparison with the duration of aplasia observed for patients having not been under SSRI medication (+).
In order to evaluate the impact of treatment with SSRI on chemotherapy-induced aplasia, data of all patients benefiting from autologous hematopoietic stem cell transplantation (HSCT) from 2010 to 2017 in the hematology department of Necker Hospital, Paris, France were screened. Data from 22 patients who were under therapy with SSRI for usual indications at the time of autologous HSCT retrospectively reviewed, and compared with 66 control patients (3 controls per patient) matched for confounding factors (age, sex, disease, response of disease before therapy, conditioning regimen, date of transplant and number of CD34+ cells injected). It is observed a reduced duration of aplasia (a criterion of which, commonly described in the art, being a number of polynuclear neutrophils below 500/mm^3) in patients who were treated with SSRI at the time of autologous HSCT.

In test [3] the test system is irradiation-induced cytopenia in WT C57BL/6 mice. As to the kind of experiment: Sub-lethal irradiation-induced cytopenia in mice: SSRI, hematopoietic growth factor or both (FIG. 7, 8, 9, Table 1). It counts as in vivo, mouse. To be noted: At Day 17 from sublethal irradiation.
Test [4] relates to CD71+/TER119+ population in Tph1+/- mice. Nature of the test: Sub-lethal irradiation in Tph1+/- mice, fluoxetine versus placebo, erythroid precursor immunophenotyping (FIG. 5C, 5D). It counts as in vivo, mouse. To be noted: starting on day 7 following sub-lethal irradiation, compared to placebo.
Test [5] relates to anemia after sub-lethal irradiation in WT mice. Nature of the test: Sub-lethal irradiation anemia model in WT mice, fluoxetine versus placebo (FIG. 5A, 5B). It counts as in vivo, mouse. To be noted: fluoxetine for 7 days followed by sub-lethal irradiation.

Take `Cn1c2c(c3ccccc31)CCNCC2` [PNU 22394]: the erythroid proliferation entry in test [1] is recorded as “significantly enhances erythroid proliferation”.
As for `CNCC[C@@H](Oc1ccc(C(F)(F)F)cc1)c1ccccc1` (racemic) [fluoxetine, (RS)-N-methyl-3-phenyl-3-propan-1-amine], in test [2], the “duration (length) of aplasia” value was “considerably reduced by at least two days”. In test [3], the “% of mice with Hemoglobin level ≤8 g/dl” value is 100%, the “% of mice with Normal Hemoglobin level” value is listed as 0%, the “% of mice with Normal neutrophil number” value amounted to 20% and the “% of mice with Normal platelet level” value is 0%. The “CD71+/TER119+ population” value in test [4] is “significant increase”. The “day of rapid and significant increase in the number of reticulocytes” value in test [5] is 3 days. Moreover, in test [5] (placebo no normalization until day 22), the “day of normalization of Hb levels” value was 11 days.
With `NCCc1c[nH]c2ccc(O)cc12` [5-HT, 5-hydroxytryptamine], the erythroid proliferation result in test [1] is on record as “significantly enhances erythroid proliferation”.
